The values that follow come from patent US20060014193A1, “Nucleoside phosphoramidates and nucleoside phosphoramidases” (priority 2004, published 2006).

By Km is commonly meant the concentration of substrate that gives half-maximal velocity.

Like-named read-outs stand apart in the source and are kept apart here.

Test [1] addresses T1, hHINT1 (Homo sapiens, UniProt P49773). As to the kind of experiment: 31P NMR phosphoramidase assay of purified protein. It is filed as biochemical. The following applies: for Specific activity: 10 mM substrate, pH 7.2, 22° C. On the procedure: (§1) Phosphoramidase activity in cell lysates was measured by the ^1H-decoupling mode of phosphorus-31 NMR spectroscopy (Varian VAC-300 spectrometer), which can clearly distinguish the substrate, AMP-NH2, and the product, adenosine 5′-monophosphate (AMP). NMR spectrometry is suitable for quantitation by integration of the area under the peak, which is proportional to the amount of nuclei present. The relative ratio of peak areas can be used to calculate the amount of turnover corrected based on a standard curve.
(§2) Cell lysates from E. coli Tuner(DE3)pLacI cells (Novagen) were obtained by treatment with lysozyme (1 mg/ml) and the DNA was precipitated by protamine sulfate followed by centrifugation to remove cell debris. The supernatant was dialyzed extensively against Buffer A (20 mM Tris (pH 7.0); 1 mM EDTA; 1 mM DTT, 0.01 mM PMSF) to remove cellular phosphates and nucleotides. Phosphate free cell lysates (0.75 mg total protein) were incubated with 5 mM AMP-NH2 in 0.5 ml reaction buffer (0.5 mM MgCl2, 20 mM HEPES (pH 7.2)) at 37° C. for intervals of 15 min, 30 min, and 12 h. The reactions were terminated by snap freezing in a dry ice/acetone slush bath and lyophilized for 5 h. The samples were then dissolved in NMR buffer (600 μL, 50 mM EDTA, 20 mM HEPES (pH 7.2), and 1 mM TMP (trimethylphosphate, internal standard)) and the insoluble portion was spun down by centrifugation at 12,500×g for 5 min. A ^31P NMR spectrum was then collected for the supernatant. For the low pH control experiment, 10 mM AMP-NH2 in reaction buffer (500 μL, pH 2.0) was incubated at 37° C. for 12 h and the 31p signal was detected under the same conditions.
(§3) Five recombinant purified proteins were tested with three commercial available compounds (Sigma): AMP-NH2, adenosine 5′-monophosphomorpholidate (AMP-Mor), and guanosine 5′-monophosphomorpholidate (GMP-Mor) (FIG. 1). The compounds (10 mM) were incubated with proteins (2.5-10 μg) in the reaction buffer (500 μL, 0.5 mM MgCl2, 20 mM HEPES (pH 7.2)) at 22° C. for intervals of 36 and 66 min. The reactions were quenched by adding 5 M NaOH (20 μL), followed by snap freezing in a dry ice/acetone slush bath, and lyophilized. The sample preparation for ^31P NMR measurement was as described above for the cell-lysate experiment except that the pH was adjusted by the addition of 12 μL 6 M HCl before NMR spectra were collected.

Test [2] addresses T2, Rabbit HINT1 (Oryctolagus cuniculus, UniProt P80912).
T2 construct: made in house; host or cells: E. coli hinT deletion mutant
The test can be described thus: 31P NMR phosphoramidase assay of purified protein. It is filed as biochemical. The following applies: for Specific activity: 10 mM substrate, pH 7.2, 22° C. The method, then: as §1, §2, §3

In test [3] the target is T3, Human Hint1-DHFR (UniProt P0ABQ4+P49773).
T3 construct: made in house; host or cells: E. coli (following the procedure for the hinT plasmid)
As to the kind of experiment: 31P NMR phosphoramidase assay of purified protein. It is filed as biochemical. The following applies: 10 mM substrate, pH 7.2, 22° C. The method, then:
as §1, §2, §3

The target of test [4] is T4, E. coli hinT-DHFR (Escherichia coli, UniProt P0ABQ4+P0ACE7).
T4 construct: made in house; host or cells: E. coli Tuner(DE3)pLacI
As to the kind of experiment: 31P NMR phosphoramidase assay of purified protein. It is filed as biochemical. The following applies: 10 mM substrate, pH 7.2, 22° C. On the procedure: as §1, §2, §3

Test [5] addresses T5, E. coli hinT (Escherichia coli, UniProt P0ACE7).
T5 sequence (P0ACE7 1-119): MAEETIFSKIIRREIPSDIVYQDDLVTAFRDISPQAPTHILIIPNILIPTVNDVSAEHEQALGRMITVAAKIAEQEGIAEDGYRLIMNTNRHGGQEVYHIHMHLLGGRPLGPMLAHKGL
The test can be described thus: 31P NMR phosphoramidase assay of purified protein. It counts as biochemical. The following applies: for Specific activity: 10 mM substrate, pH 7.2, 22° C. The method, then:
as §1, §2, §3

For test [6], the target named is T5, E. coli hinT. The test can be described thus: Phosphoramidase fluorescence assay. It is filed as biochemical. The following applies: Table 5. The source says:
The fluorescence of tryptophan (ex, 280 nm, em 360 nm) can be quenched when covalently attached to a nucleoside monophosphate, and nucleoside phosphoramidates of D- and L-tryptophan and tryptamine are excellent fluorescent substrates for hHINT1. […] Based on the generation of chimeric polypeptides between the hHINTI and the hinT of E. coli, the preference for D enantiomers by the human HINT1 polypeptide is likely conferred by the C-terminus amino acids (e.g., the C-terminus 5, 6, 5 7, 8, 9, 10, or 11 amino acids) of the hHINT1 enzyme. […] In addition, both D-tryptophan phosphoramidates of cytosine and uridine were substrates. Initial rates were determined 10 during the first 10-20% of the reaction for variable substrate concentrations. The Michaelis-Menten constants, kcat and Km, for selected nucleoside phosphosphoramidates have been determined. […] As observed in the initial screening assay, for phosphoramidates containing L-tryptophan, hHINT1 has a 7-fold greater preference for AMP phosphoramidates of L-tryptophan than GMP.
In addition, the Michaelis-Menten constants, kcat and Km, for selected nucleoside phosphosphoramidates were determined for both human Hint1 and E. coli hinT (Table 5).

The target of test [7] is T1, hHINT1. As to the kind of experiment: Phosphoramidase fluorescence assay. It is filed as biochemical. Particulars: for Kcat / Km: Table 5. On the procedure: The fluorescence of tryptophan (ex, 280 nm, em 360 nm) can be quenched when covalently attached to a nucleoside monophosphate, and nucleoside phosphoramidates of D- and L-tryptophan and tryptamine are excellent fluorescent substrates for hHINT1. Typically, after measurement of initial substrate fluorescence, hHINT1 was added to the reaction solution (HEPES buffer, pH 7.2, 25° C.) and the change in fluorescence over 2 min was determined by converting the slope into μM of substrate hydrolyzed per μg of enzyme per min with a standard curve. […] Based on the generation of chimeric polypeptides between the hHINTI and the hinT of E. coli, the preference for D enantiomers by the human HINT1 polypeptide is likely conferred by the C-terminus amino acids (e.g., the C-terminus 5, 6, 5 7, 8, 9, 10, or 11 amino acids) of the hHINT1 enzyme. […] In addition, both D-tryptophan phosphoramidates of cytosine and uridine were substrates. Initial rates were determined 10 during the first 10-20% of the reaction for variable substrate concentrations. The Michaelis-Menten constants, kcat and Km, for selected nucleoside phosphosphoramidates have been determined. (Table 4). As observed in the initial screening assay, for phosphoramidates containing L-tryptophan, hHINT1 has a 7-fold greater preference for AMP phosphoramidates of L-tryptophan than GMP.

For test [8], the target named is T1, hHINT1. The following applies: literature (J. Biol. Chem. 2004, 279, 18711; 2002, 277, 10852); cited from earlier work.
Test [9] addresses T1, hHINT1. As to the kind of experiment: Catalytic activity (velocity) of cloned, purified phosphoramidase with AMPNH2. It counts as biochemical. The source says:
The enzyme responsible for hydrolysis of AZT amino acid phosphoramidates was cloned and characterized. After construction of a cDNA library from peripheral blood mononuclear cells (PBMCs) in T7Select10-3b phage, the phage display technique was employed to isolate the enzyme by affinity chromatography. After three rounds of phage selection and ampilification with an affinity column constructed from the L-tryptophan carbamate, DNA from ten selected plaques was amplified by PCR and sequenced. […] Hint1 is a member of the HIT protein superfamily, which consists of a recently identified adenosine 5′-monophosphoramide hydrolases from rabbit and yeast.
Velocity of the enzymes was determined at pH 7.2 at room temperature in the presence of 10 mM AMPNH2.

The mark [10] stands for this setting: FIG. 5 substrate preference screen.

For `Nc1ncnc2c1ncn2[C@@H]1O[C@H](COP(=O)(O)N2CCOCC2)[C@@H](O)[C@H]1O` [AMP-Mor, adenosine 5′-monophosphomorpholidate], the Specific activity in [1] was 45.0 ± 0 nmol nmol^−1 min^−1; in [2], 26.6 ± 0.6 nmol nmol^−1 min^−1; in test [3] it was 43.4 ± 4.0 nmol nmol^−1 min^−1; in test [4], 411 ± 4 nmol nmol^−1 min^−1; in [5], 360 ± 1 nmol nmol^−1 min^−1.

As for `Nc1ncnc2c1ncn2[C@@H]1O[C@H](COP(=O)(O)NCCc2c[nH]c3ccccc23)[C@@H](O)[C@H]1O` [AMP-Tryptamine], in [6], the Kcat came out at 4.07 ± 0.11 s⁻¹ and the Michaelis constant (Km) came to 5.03 ± 0.21 µM. In addition, in test [7], the Kcat amounted to 2.05 ± 0.27 s⁻¹ and the Km was determined as 0.25 ± 0.05 µM.

Take `Nc1ncnc2c1ncn2[C@@H]1O[C@H](COP(=O)(O)NCCCC[C@H](N)C(=O)O)[C@@H](O)[C@H]1O` [AMP-lysine]: in test [8], the Kcat was 0.234 ± 0.011 s⁻¹ and the Km was 0.472 ± 0.057 µM.

In the case of `Nc1ncnc2c1ncn2[C@@H]1O[C@H](COP(=O)(O)NCCc2c[nH]c3ccccc23)[C@@H](O)[C@@H]1O` [Ara-AMP-Tryptamine], in test [6], the Kcat was 0.95 ± 0.17 s⁻¹ and the Km came to 34.6 ± 5.64 µM. Further, in [7], the Kcat turned out to be 0.85 ± 0.1 s⁻¹ and the Km came to 0.79 ± 0.11 µM.

Turning to `Nc1nc2c(ncn2C2OC(COP(=O)(O)NC(Cc3c[nH]c4ccccc34)C(=O)O)C(O)C2O)c(=O)[nH]1` [GMP D-tryptophan phosphoramidate, guanosine monophosphate (GMP) D-tryptophan phosphoramidate], in [7] (setting [10]), the “Activity relative to 7-benzyl guanosine monophosphate (7-Bn GMP)” value is “approximately 7 fold” and the “Activity relative to GMP L-tryptophan” value was “nearly identical”.

For `COC(=O)[C@@H](Cc1c[nH]c2ccccc12)NP(=O)(O)OC[C@H]1O[C@@H](n2cnc3c(=O)[nH]c(N)nc32)[C@H](O)[C@@H]1O` [GMP-D-TrpCOOMe], in test [6], the Kcat came to 1.75 ± 0.05 s⁻¹ and the Km was 21.3 ± 1.21 µM. Further, in [7], the Kcat came to 0.29 ± 0.02 s⁻¹ and the Km turned out to be 3.27 ± 0.58 µM.

Turning to `Nc1nc2c(ncn2[C@@H]2O[C@H](COP(=O)(O)N3CCOCC3)[C@@H](O)[C@H]2O)c(=O)[nH]1` [GMP-Mor, guanosine 5′-monophosphomorpholidate], the “Preference for GMP-Mor over AMP-Mor” value in test [1], in test [2] and in [5] was 2 fold each time. Further, the Specific activity in test [1] was 78.7 ± 1.3 nmol nmol^−1 min^−1; in test [2] it was 48.6 ± 0.4 nmol nmol^−1 min^−1; in test [3], 87.2 ± 11.8 nmol nmol^−1 min^−1; in [4] it was 675 ± 17 nmol nmol^−1 min^−1; in test [5] it was 669 ± 1 nmol nmol^−1 min^−1.

For `Nc1nc2c(ncn2[C@@H]2O[C@H](COP(=O)(O)NCCc3c[nH]c4ccccc34)[C@@H](O)[C@H]2O)c(=O)[nH]1` [GMP-Tryptamine], in test [6], the Kcat was 3.45 ± 0.3 s⁻¹ and the Km turned out to be 5.34 ± 0.69 µM. Further, in test [7], the Kcat is 2.09 ± 0.16 s⁻¹ and the Km came out at 0.243 ± 0.03 µM.

Take `O=c1[nH]cnc2c1ncn2[C@@H]1O[C@H](COP(=O)(O)NCCc2c[nH]c3ccccc23)[C@@H](O)[C@H]1O` [IMP-Tryptamine]: in test [6], the Kcat worked out at 3.89 ± 0.18 s⁻¹ and the Km came to 13.7 ± 0.67 µM. In test [7], the Kcat was 2.53 ± 0.09 s⁻¹ and the Michaelis constant (Km) was determined as 0.71 ± 0.03 µM.

Take `Cc1cn([C@H]2C[C@H](O)[C@@H](COP(=O)(O)NCCc3c[nH]c4ccccc34)O2)c(=O)[nH]c1=O` [TMP-Tryptamine]: the Kcat in [6] came to 0.014 ± 0.001 s⁻¹; in [7] it was 0.044 ± 0.01 s⁻¹. Besides, the figures for the Km in [6] and in [7] were 35.9 ± 2.27 µM and 26.1 ± 2.78 µM, respectively.

For `O=c1ccn([C@@H]2O[C@H](COP(=O)(O)NCCc3c[nH]c4ccccc34)[C@@H](O)[C@H]2O)c(=O)[nH]1` [UMP-Tryptamine], in test [6], the Kcat turned out to be 1.63 ± 0.22 s⁻¹ and the Km was determined as 25.1 ± 3.56 µM. Also, in test [7], the Kcat turned out to be 1.85 ± 0.29 s⁻¹ and the Km turned out to be 1.42 ± 0.25 µM.

Consider AZT tryptophan phosphoramidate, for which, in [9], the “Hydrolysis by over-expressed, purified human Hint1” value was “to a lesser extent”.
